# Test results as given in ChEMBL document CHEMBL2163290, “Substituted pyrazolones require N2 hydrogen bond donating ability to protect against cytotoxicity from protein aggregation of mutant superoxide dismutase 1” (Bioorg Med Chem Lett, 2012).
# Test system: PC-12
# Experiment: Neuroprotective activity in rat PC12 cells expressing SOD1 G93A mutant assessed as increase in cell viability after 48 hrs by CalceinAM-based fluorescence assay
# Assay type: functional
# Conditions: PC-12, 48 h
row,Structure (SMILES),EC50 [nM]
1,O=c1cc(COc2cc(Cl)cc(Cl)c2)[nH][nH]1,67
2,O=C1CC(COc2cc(Cl)cc(Cl)c2)CN1Cc1ccccc1 (stereo not given),> 32000
3,O=C1C=C(COc2cc(Cl)cc(Cl)c2)CN1Cc1ccccc1,> 32000
4,Cn1[nH]c(COc2cc(Cl)cc(Cl)c2)cc1=O,670
5,Cn1c(COc2cc(Cl)cc(Cl)c2)cc(=O)n1C,> 32000
6,O=C1N[C@H]2[C@H](CS[C@H]2CCCCC(=O)n2[nH]c(COc3cc(Cl)cc(Cl)c3)cc2=O)N1,560
7,O=C(CCCC[C@@H]1SC[C@@H]2NC(=O)N[C@@H]21)NCCOCCOCCOCCOCCC(=O)n1[nH]c(COc2cc(Cl)cc(Cl)c2)cc1=O,670
8,O=c1cc(COc2cc(Cl)cc(Cl)c2)[nH]n1CCO,> 32000
9,O=c1cc(COc2cc(Cl)cc(Cl)c2)[nH]n1CCCO,340
10,O=c1cc(COc2cc(Cl)cc(Cl)c2)[nH]n1-c1ccccc1,1030
11,O=c1cc(COc2cc(Cl)cc(Cl)c2)[nH]n1-c1ccc(Cl)cc1,1730
12,O=c1cc(COc2cc(Cl)cc(Cl)c2)[nH]n1-c1c(Cl)cc(C(F)(F)F)cc1Cl,> 32000
13,O=c1cc(COc2cc(Cl)cc(Cl)c2)[nH]n1-c1ccc([N+](=O)[O-])cc1[N+](=O)[O-],> 32000
14,O=c1cc(COc2cc(Cl)cc(Cl)c2)[nH]n1-c1nc(-c2ccccc2)cs1,1000
15,O=c1cc(COc2cc(Cl)cc(Cl)c2)[nH]n1Cc1ccccc1,130
16,O=c1cc(COc2cc(Cl)cc(Cl)c2)[nH]n1Cc1cccc(O)c1,360
17,COc1ccc(Cn2[nH]c(COc3cc(Cl)cc(Cl)c3)cc2=O)cc1,> 32000
18,O=Cn1[nH]c(COc2cc(Cl)cc(Cl)c2)cc1=O,490
19,CC(=O)n1[nH]c(COc2cc(Cl)cc(Cl)c2)cc1=O,270
20,N#CCC(=O)n1[nH]c(COc2cc(Cl)cc(Cl)c2)cc1=O,420
21,O=C(c1cccs1)n1[nH]c(COc2cc(Cl)cc(Cl)c2)cc1=O,310
22,O=C(c1ccc(N=C=S)cc1)n1[nH]c(COc2cc(Cl)cc(Cl)c2)cc1=O,330
23,Cc1nnsc1C(=O)n1[nH]c(COc2cc(Cl)cc(Cl)c2)cc1=O,1710
24,Nc1ccc(C(=O)n2[nH]c(COc3cc(Cl)cc(Cl)c3)cc2=O)cc1,930
25,O=C(c1cccnc1)n1[nH]c(COc2cc(Cl)cc(Cl)c2)cc1=O,1320
